Data as given in patent publication US10155769B2, “Fused azaheterocyclic compounds and their use as AMPA receptor modulators” (Janssen Pharmaceutica NV, priority 2016, dated 2018).

molecular target: GluA1o-γ8 (Homo sapiens (Human), UniProt P42261+Q8WXS5); assay: Calcium flux assay (FLIPR), inhibition of TARP γ8 dependent AMPA receptor activity; assay type: cell-based; settings: HEK293 cells stably expressing GRIA1o-CACNG8 fusion construct; calcium flux following 15 μM glutamate; negative log of IC50 in molar
Sequence (P42261 other isoform, or with tags, fused parts or gaps): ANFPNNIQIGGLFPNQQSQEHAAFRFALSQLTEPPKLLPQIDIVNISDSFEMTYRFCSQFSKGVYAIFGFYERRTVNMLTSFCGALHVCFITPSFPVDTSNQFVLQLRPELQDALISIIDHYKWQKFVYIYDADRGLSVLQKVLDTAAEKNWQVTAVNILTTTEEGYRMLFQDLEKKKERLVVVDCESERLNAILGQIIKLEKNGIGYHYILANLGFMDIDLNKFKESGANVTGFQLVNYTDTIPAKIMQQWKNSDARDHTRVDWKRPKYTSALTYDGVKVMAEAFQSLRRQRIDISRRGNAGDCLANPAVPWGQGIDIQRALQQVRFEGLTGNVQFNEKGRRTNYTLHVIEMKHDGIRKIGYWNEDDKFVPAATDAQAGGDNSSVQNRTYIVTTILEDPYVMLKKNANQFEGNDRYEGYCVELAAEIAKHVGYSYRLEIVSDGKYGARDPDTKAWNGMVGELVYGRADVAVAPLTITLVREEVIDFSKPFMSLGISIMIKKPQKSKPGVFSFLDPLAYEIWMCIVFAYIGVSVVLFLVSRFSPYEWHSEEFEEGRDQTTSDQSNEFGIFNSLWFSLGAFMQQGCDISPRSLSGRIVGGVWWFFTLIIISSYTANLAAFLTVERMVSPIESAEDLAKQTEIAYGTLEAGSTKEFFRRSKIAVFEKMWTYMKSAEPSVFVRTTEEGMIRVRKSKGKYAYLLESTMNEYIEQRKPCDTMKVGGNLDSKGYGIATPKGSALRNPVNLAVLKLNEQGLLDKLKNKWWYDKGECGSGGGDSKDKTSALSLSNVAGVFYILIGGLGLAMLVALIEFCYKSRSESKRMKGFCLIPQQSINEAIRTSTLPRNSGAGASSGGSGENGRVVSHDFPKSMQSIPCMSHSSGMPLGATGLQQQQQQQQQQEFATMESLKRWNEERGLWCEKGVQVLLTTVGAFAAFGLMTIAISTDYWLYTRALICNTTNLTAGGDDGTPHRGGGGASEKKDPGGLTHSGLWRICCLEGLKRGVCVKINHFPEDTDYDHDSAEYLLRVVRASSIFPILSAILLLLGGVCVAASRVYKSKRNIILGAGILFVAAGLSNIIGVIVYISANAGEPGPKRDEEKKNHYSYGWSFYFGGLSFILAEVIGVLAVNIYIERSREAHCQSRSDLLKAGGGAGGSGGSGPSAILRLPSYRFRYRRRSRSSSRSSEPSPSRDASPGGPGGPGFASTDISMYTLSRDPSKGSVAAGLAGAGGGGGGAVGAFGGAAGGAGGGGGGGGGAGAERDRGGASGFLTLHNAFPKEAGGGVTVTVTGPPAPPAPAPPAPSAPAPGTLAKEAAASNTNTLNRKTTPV
Excerpt: This assay was used to test compounds for their ability to inhibit TARP γ8 dependent AMPA receptor activity. The AMPA receptor is a non-selective cation channel activated by glutamate. Ionotropic glutamate receptors normally desensitize too rapidly to allow detectable calcium influx in a FLIPR assay (Strange et al. (2006). “Functional characterisation of homomeric ionotropic glutamate receptors GluR1-GluR6 in a fluorescence-based high throughput screening assay.” Comb Chem High Throughput Screen 9(2): 147-158). But, this desensitization is incomplete, and a substantial steady-state current remains in the sustained presence of glutamate (Cho et al. (2007). “Two families of TARP isoforms that have distinct effects on the kinetic properties of AMPA receptors and synaptic currents.” Neuron 55(6): 890-904).
An in vitro assay was used to determine the potency of test compounds as inhibitors of the glutamate response of the channel formed by GluA1o-γ8. To ensure a 1:1 stoichiometry of GluA1o and γ8 subunits in the expressed channel, a fusion of the cDNAs for GRIA1o and CACNG8 was used. Following Shi et al (2009) “The stoichiometry of AMPA receptors and TARPs varies by neuronal cell type.” Neuron 62(5): 633-640), the C-terminus of the cDNA for GRIA1o was fused to the N-terminus of the cDNA for γ8. The linker sequence was QQQQQQQQQQEFAT. Channels expressed with this construct appear to have similar properties to channels formed by co-expression of GRIA1o with an excess of CACNG8 (Shi et al. 2009). A clonal cell line in HEK293 cells stably expressing this construct, with a geneticin selection marker, was generated for use in this assay.
Cell expressing the GRIA1o-CACNG8 fusion construct were grown in a monolayer in 96- or 384-well microtiter plates. They were washed with assay buffer (135 mM NaCl, 4 mM KCl, 3 mM CaCl2, 1 mM MgCl2, 5 mM glucose, 10 mM HEPES, pH 7.4, 300 mOs) using a Biotek EL405 plate washer. The cells were then loaded with a calcium-sensitive dye (Calcium-5 or Calcium-6, Molecular Devices) and the test compounds at a range of concentrations. Calcium flux following the addition of 15 μM glutamate was monitored using a Molecular Devices FLIPR Tetra.
The fluorescence in each well was normalized to the fluorescence of negative and positive control wells. The negative control wells had no added compounds, and the positive control wells had been incubated with 10 μM CP465022 (a non-subtype-selective AMPA receptor antagonist) (Lazzaro et al. (2002). “Functional characterization of CP-465,022, a selective, noncompetitive AMPA receptor antagonist.” Neuropharmacology 42(2): 143-153). The responses to glutamate as functions of the test compound concentrations were fitted to a four-parameter logistic function. The fitted parameter corresponding to the midpoint was taken to be the potency of inhibition of the compound. The data in Table 4 below illustrates the observed potency for the compounds described herein. pIC50 refers to the negative log of the IC50 in molar.

| pIC50 | IC50 [nM] | SMILES |
| --- | --- | --- |
| 9.5 |  | FC(F)c1nc2c(-c3cc(Cl)c4[nH]ncc4c3)c(C(F)(F)F)ccn2n1 [Example 1, 8-(7-Chloro-1H-indazol-5-yl)-2-(difluoromethyl)-7-(trifluoromethyl)-[1,2,4]triazolo[1,5-a]pyridine] |
| 8.5 |  | Cc1cc(-c2c(Cl)ccn3nc(C(F)(F)F)nc23)cc2cn[nH]c12 [Example 2, 7-Chloro-8-(7-methyl-1H-indazol-5-yl)-2-(trifluoromethyl)-[1,2,4]triazolo[1,5-a]pyridine] |
| 8.1 |  | O=c1[nH]c2ccc(-c3c(C(F)(F)F)ccn4nc(C(F)(F)F)nc34)cc2s1 [Example 3, 6-(2,7-Bis(trifluoromethyl)-[1,2,4]triazolo[1,5-a]pyridin-8-yl)benzo[d]thiazol-2(3H)-one] |
| 10.6 |  | Cc1cc(-c2c(-c3ccc(F)cc3)ccn3nc(C4CCC4)nc23)cc2cn[nH]c12 [Example 4, 2-Cyclobutyl-7-(4-fluorophenyl)-8-(7-methyl-1H-indazol-5-yl)-[1,2,4]triazolo[1,5-a]pyridine] |
| 9.6 |  | O=c1[nH]c2ccc(-c3c(-c4ccc(F)cc4)ccn4nc(C(F)(F)F)nc34)cc2s1 [Example 5, 6-(7-(4-Fluorophenyl)-2-(trifluoromethyl)-[1,2,4]triazolo[1,5-a]pyridin-8-yl)benzo[d]thiazol-2(3H)-one] |
| 10.1 |  | Cc1cc(-c2c(C3CCCC3)ccn3nc(C(F)(F)F)nc23)cc2cn[nH]c12 [Example 6, 7-Cyclopentyl-8-(7-methyl-1H-indazol-5-yl)-2-(trifluoromethyl)-[1,2,4]triazolo[1,5-a]pyridine] |
| 9.5 |  | Cc1cc(-c2c(N3CCC3)ccn3nc(C(F)(F)F)nc23)cc2cn[nH]c12 [Example 7, 7-(Azetidin-1-yl)-8-(7-methyl-1H-indazol-5-yl)-2-(trifluoromethyl)-[1,2,4]triazolo[1,5-a]pyridine] |
| 8.6 |  | Cc1cc(-c2c(N3CC(F)C3)ccn3nc(C(F)(F)F)nc23)cc2cn[nH]c12 [Example 8, 7-(3-Fluoroazetidin-1-yl)-8-(7-methyl-1H-indazol-5-yl)-2-(trifluoromethyl)-[1,2,4]triazolo[1,5-a]pyridine] |
| 10.8 |  | Cc1cc(-c2c(-c3ccc(F)cc3)ccn3nc(C4CCCC4)nc23)cc2cn[nH]c12 [Example 9, 2-Cyclopentyl-7-(4-fluorophenyl)-8-(7-methyl-1H-indazol-5-yl)-[1,2,4]triazolo[1,5-a]pyridine] |
| 7.7 |  | Cc1cc(-c2c(C#N)ccn3nc(C(F)(F)F)nc23)cc2cn[nH]c12 [Example 10, 8-(7-Methyl-1H-indazol-5-yl)-2-(trifluoromethyl)-[1,2,4]triazolo[1,5-a]pyridine-7-carbonitrile] |
|  | 1 | Cc1cc(-c2c(C)ccn3cc(C(F)(F)F)nc23)cc2c1NC(=O)C2 [Example 11, 7-Methyl-5-[7-methyl-2-(trifluoromethyl)imidazo[1,2-a]pyridin-8-yl]indolin-2-one] |
|  | 3.16 | Fc1ccc(-c2ccn3cc(C(F)(F)F)nc3c2-c2ccc3[nH]ncc3c2)cc1 [Example 12, 5-(7-(4-Fluorophenyl)-2-(trifluoromethyl)imidazo[1,2-a]pyridin-8-yl)-1H-indazole] |
|  | 0.316 | FC(F)(F)c1cn2cnc(C(F)(F)F)c(-c3cc(Cl)c4[nH]ncc4c3)c2n1 [Example 13, 8-(7-Chloro-1H-indazol-5-yl)-2,7-bis(trifluoromethyl)imidazo[1,2-c]pyrimidine] |
|  | 0.398 | FC(F)c1cn2cnc(C(F)(F)F)c(-c3cc(Cl)c4[nH]ncc4c3)c2n1 [Example 14, 8-(7-Chloro-1H-indazol-5-yl)-2-(difluoromethyl)-7-(trifluoromethyl)imidazo[1,2-c]pyrimidine] |
|  | 2 | Cc1cc(-c2c(C(F)(F)F)ncn3cc(C(F)F)nc23)cc2cn[nH]c12 [Example 15, 2-(Difluoromethyl)-8-(7-methyl-1H-indazol-5-yl)-7-(trifluoromethyl)imidazo[1,2-c]pyrimidine] |
| 9.0 |  | Cc1cc(-c2c(C(F)(F)F)ccn3nc(C(F)F)nc23)cc2cn[nH]c12 [Example 16, 8-(7-Methyl-1H-indazol-5-yl)-2-(difluoromethyl)-7-(trifluoromethyl)-[1,2,4]triazolo[1,5-a]pyridine] |
| 8.9 |  | O=C1Cc2cc(-c3c(C(F)(F)F)ccn4nc(C(F)F)nc34)cc(Cl)c2N1 [Example 17, 7-Chloro-5-(2-(difluoromethyl)-7-(trifluoromethyl)-[1,2,4]triazolo[1,5-a]pyridin-8-yl)indolin-2-one] |
| 8.6 |  | Cc1cc(-c2c(C(F)(F)F)ccn3nc(C(F)F)nc23)cc2c1NC(=O)C2 [Example 18, 7-Methyl-5-(2-(difluoromethyl)-7-(trifluoromethyl)-[1,2,4]triazolo[1,5-a]pyridin-8-yl)indolin-2-one] |
| 9.6 |  | FC(F)(F)c1nc2c(-c3cc(Cl)c4[nH]ncc4c3)c(C(F)(F)F)ccn2n1 [Example 19, 8-(7-Chloro-1H-indazol-5-yl)-2,7-bis(trifluoromethyl)-[1,2,4]triazolo[1,5-a]pyridine] |
| 9.3 |  | Cc1cc(-c2c(C(F)(F)F)ccn3nc(C(F)(F)F)nc23)cc2cn[nH]c12 [Example 20, 8-(7-Methyl-1H-indazol-5-yl)-2,7-bis(trifluoromethyl)-[1,2,4]triazolo[1,5-a]pyridine] |
| 9.5 |  | O=C1Cc2cc(-c3c(C(F)(F)F)ccn4nc(C(F)(F)F)nc34)cc(Cl)c2N1 [Example 21, 5-(2,7-Bis(trifluoromethyl)-[1,2,4]triazolo[1,5-a]pyridin-8-yl)-7-chloroindolin-2-one] |
| 9.1 |  | Cc1cc(-c2c(C(F)(F)F)ccn3nc(C(F)(F)F)nc23)cc2c1NC(=O)C2 [Example 22, 5-(2,7-Bis(trifluoromethyl)-[1,2,4]triazolo[1,5-a]pyridin-8-yl)-7-methylindolin-2-one] |
| 9.4 |  | FC(F)c1ccn2nc(C(F)(F)F)nc2c1-c1cc(Cl)c2[nH]ncc2c1 [Example 23, 8-(7-Chloro-1H-indazol-5-yl)-7-(difluoromethyl)-2-(trifluoromethyl)-[1,2,4]triazolo[1,5-a]pyridine] |
| 9.2 |  | Cc1cc(-c2c(C(F)F)ccn3nc(C(F)(F)F)nc23)cc2cn[nH]c12 [Example 24, 8-(7-Methyl-1H-indazol-5-yl)-7-(difluoromethyl)-2-(trifluoromethyl)-[1,2,4]triazolo[1,5-a]pyridine] |
| 9.2 |  | O=C1Cc2cc(-c3c(C(F)F)ccn4nc(C(F)(F)F)nc34)cc(Cl)c2N1 [Example 25, 7-Chloro-5-(7-(difluoromethyl)-2-(trifluoromethyl)-[1,2,4]triazolo[1,5-a]pyridin-8-yl)indolin-2-one] |
| 9.0 |  | Cc1cc(-c2c(C(F)F)ccn3nc(C(F)(F)F)nc23)cc2c1NC(=O)C2 [Example 26, 7-Methyl-5-(7-(difluoromethyl)-2-(trifluoromethyl)-[1,2,4]triazolo[1,5-a]pyridin-8-yl)indolin-2-one] |
| 8.4 |  | Cc1ccn2nc(C(F)(F)F)nc2c1-c1cc(C)c2[nH]ncc2c1 [Example 27, 7-Methyl-8-(7-methyl-1H-indazol-5-yl)-2-(trifluoromethyl)-[1,2,4]triazolo[1,5-a]pyridine] |
| 9.1 |  | CCc1ccn2nc(C(F)(F)F)nc2c1-c1cc(C)c2[nH]ncc2c1 [Example 28, 7-Ethyl-8-(7-methyl-1H-indazol-5-yl)-2-(trifluoromethyl)-[1,2,4]triazolo[1,5-a]pyridine] |
| 7.6 |  | COc1ccn2nc(C(F)(F)F)nc2c1-c1cc(C)c2[nH]ncc2c1 [Example 29, 7-Methoxy-8-(7-methyl-1H-indazol-5-yl)-2-(trifluoromethyl)-[1,2,4]triazolo[1,5-a]pyridine] |
| 9.8 |  | FC(F)(F)c1ccn2nc(C3CC3)nc2c1-c1cc(Cl)c2[nH]ncc2c1 [Example 30, 8-(7-Chloro-1H-indazol-5-yl)-2-cyclopropyl-7-(trifluoromethyl)-[1,2,4]triazolo[1,5-a]pyridine] |
